Measured values as given in patent publication US20190330189A1, “ANTIBACTERIAL COMPOUNDS” (Janssen Sciences Ireland UC, priority 2015, published 2019).

What follows are compounds tested on Mycobacterium tuberculosis strain EH 4.0 (361.269) (assay: Test 4: MIC determination, resazurin fluorescence, strain EH 4.0). Settings: Mycobacterium tuberculosis, read-out: pIC50, Test 4, M. tuberculosis strain EH 4.0 (361.269) (converted).
Type: cell-based
Excerpt: TEST 4 (See Also Test 1 Above; in this Test a Different Strain of Mycobacterium tuberculosis Strain is Employed)
Appropriate solutions of experimental and reference compounds were made in 96 well plates with 7H9 medium. Samples of Mycobacterium tuberculosis strain EH 4.0 (361.269) were taken from cultures in stationary growth phase. These were first diluted to obtain an optical density of 0.3 at 600 nm wavelength and then diluted 1/100, resulting in an inoculum of approximately 5×10 exp5 colony forming units per well. Plates were incubated at 37° C. in plastic bags to prevent evaporation. After 7 days, resazurin was added to all wells.
For CCc1nc2sc(C)cn2c1C(=O)NCC1CC2(CCN(c3ccc(OC(F)(F)F)cc3)CC2)C1 [Compound 32], the IC50 was 0.0398 µM.
In the case of O=C(NCC1CC12CCN(c1ccc(OC(F)(F)F)cc1)CC2)c1cc2n(c1)CCCC2 (stereo not drawn) [Compound 33], the IC50 is reported as greater than 12.6 µM.
With CCc1nc2cn(C)ccc-2c1C(=O)NCc1ccc(N2CC3(CC(F)C3)C2)cc1 [Compound 34] the IC50 was greater than 12.6 µM.
With O=C(NCc1ccc(N2CC3(C2)CN(c2ccc(OC(F)(F)F)cc2)C3)cc1)c1cc2c([nH]1)CCCC2 [Compound 35] the IC50 was 7.94 µM.
CCc1c(C(=O)NCc2ccc(N3CC4(CC(c5ccc(OC(F)(F)F)cc5)C4)C3)cc2)c2ccncc2n1C [Compound 36] showed an IC50 of 7.94 µM.
In the case of O=C(NCc1ccc(N2CC3(CC(c4ccc(OC(F)(F)F)cc4)C3)C2)cc1)c1cc2c([nH]1)CCCC2 [Compound 37], the IC50 is reported as 3.98 µM.
Work on CCc1c(C(=O)NCC2CC23CCN(c2ccc(OC(F)(F)F)cc2)CC3)c2cc(Cl)cnc2n1C (stereo not drawn) [Compound 38] yielded an IC50 greater than 12.6 µM.
In the case of CCc1c(C(=O)NCC2CC23CCN(c2ccc(OC(F)(F)F)cc2)CC3)c2cc(Cl)ccc2n1C (stereo not drawn) [Compound 39], the IC50 is reported as greater than 12.6 µM.
O=C(NCC1CC12CCN(c1ccc(OC(F)(F)F)cc1)CC2)c1cc2c([nH]1)CCCC2 (stereo not drawn) [Compound 40] showed an IC50 greater than 12.6 µM.
With CCc1nc2n(c1C(=O)NCC1CC13CCN(c1ccc(OC(F)(F)F)cc1)CC3)CCN(C)C2 (stereo not drawn) [Compound 41] the IC50 was 7.94 µM.
O=C(NCc1ccc(N2CC3(C2)CN(c2ccc(OC(F)(F)F)cc2)C3)cc1)c1cc2n(c1)CCCC2 [Compound 42] gave an IC50 of 10 µM.
CCc1c(C(=O)NCC2CC3(CCN(c4ccc(OC(F)(F)F)cc4)CC3)C2)c2cc(Cl)cnc2n1C [Compound 43] showed an IC50 greater than 12.6 µM.
In the case of O=C(NCC1CC2(CCN(c3ccc(OC(F)(F)F)cc3)CC2)C1)c1cc2c([nH]1)CCCC2 [Compound 44], the IC50 is reported as 7.94 µM.
Compound O=C(NCc1ccc(N2CC3(CC(c4ccc(OC(F)(F)F)cc4)C3)C2)cc1)c1cc2n(c1)CCCC2 [Compound 45] has an IC50 of 7.94 µM.
In the case of CCc1nc2n(c1C(=O)NCC1CC3(CCN(c4ccc(OC(F)(F)F)cc4)CC3)C1)CCN(C)C2 [Compound 46], the IC50 is reported as 7.94 µM.
CCc1c(C(=O)NCc2ccc(N3CC4(C3)CN(c3ccc(OC(F)(F)F)cc3)C4)cc2)c2ccncc2n1C [Compound 47] showed an IC50 of 6.31 µM.
CCc1nc2n(c1C(=O)NCC1CC13CCN(c1ccc(OC(F)(F)F)cc1)CC3)CCCC2 (stereo not drawn) [Compound 48] showed an IC50 of 6.31 µM.
For CCc1c(C(=O)NCC2CC23CCN(c2ccc(OC(F)(F)F)cc2)CC3)c2ccncc2n1C (stereo not drawn) [Compound 49], the IC50 was greater than 12.6 µM.
For CCc1nc2cn(C)ccc-2c1C(=O)NCC1CC2(CCN(c3ccc(OC(F)(F)F)cc3)CC2)C1 [Compound 50], the IC50 was greater than 12.6 µM.
With CCc1nc2ccn(C)cc-2c1C(=O)NCc1ccc(N2CC3(C2)CN(c2ccc(OC(F)(F)F)cc2)C3)cc1 [Compound 51] the IC50 was 6.31 µM.
For CCc1c(C(=O)NCC2CC3(CCN(c4ccc(OC(F)(F)F)cc4)CC3)C2)c2ccncc2n1C [Compound 52], the IC50 was 7.94 µM.
Compound CCc1nc2ccn(C)cc-2c1C(=O)NCC1CC12CCN(c1ccc(OC(F)(F)F)cc1)CC2 (stereo not drawn) [Compound 53] has an IC50 greater than 12.6 µM.
Compound CCc1nc2cnc(Cl)cn2c1C(=O)NCC1CC12CCN(c1ccc(OC(F)(F)F)cc1)CC2 (stereo not drawn) [Compound 54] has an IC50 of 7.94 µM.
In the case of CCc1c(C(=O)NCC2CC23CCN(c2ccc(OC(F)(F)F)cc2)CC3)c2cnccc2n1C (stereo not drawn) [Compound 55], the IC50 is reported as greater than 12.6 µM.
Work on COc1ccn2nc(C)c(C(=O)NCc3ccc(C4CC5(C4)CN(c4ccc(OC(F)(F)F)cc4)C5)cc3)c2c1 [Compound 56] yielded an IC50 of 0.00631 µM.
COc1ccn2nc(C)c(C(=O)NCc3ccc(N4CC5(C4)CN(c4ccc(OC(F)(F)F)cc4)C5)cc3)c2c1 [Compound 57] showed an IC50 of 0.00794 µM.
CCc1nc2cnc(Cl)cn2c1C(=O)NCc1ccc(N2CC3(C2)CN(c2ccc(OC(F)(F)F)cc2)C3)cc1 [Compound 58] showed an IC50 of 0.1 µM.
Work on COc1ccn2nc(C)c(C(=O)NCC3CC4(CCN(c5ccc(OC(F)(F)F)cc5)CC4)C3)c2c1 [Compound 59] yielded an IC50 of 0.316 µM.
Work on Cc1nc2ncc(Cl)cn2c1C(=O)NCC1CC2(CCN(c3ccc(OC(F)(F)F)cc3)CC2)C1 [Compound 60] yielded an IC50 of 0.1 µM.
Work on CCc1nc2n(c1C(=O)NCC1CC3(CCN(c4ccc(OC(F)(F)F)cc4)CC3)C1)CCCC2 [Compound 61] yielded an IC50 of 0.631 µM.
For CCc1nc2sc(C)cn2c1C(=O)NCC1CC12CCN(c1ccc(OC(F)(F)F)cc1)CC2 (stereo not drawn) [Compound 64], the IC50 was 0.1 µM.
For CCc1nc2n(c1C(=O)NCc1ccc(C3CC4(C3)CN(c3ccc(OC(F)(F)F)cc3)C4)cc1)CCCC2 [Compound 65], the IC50 was 0.01 µM.
Compound CCc1nc2ncc(Cl)cn2c1C(=O)NCc1ccc(N2CC3(CC(c4ccc(S(F)(F)(F)(F)F)cc4)C3)C2)cc1 [Compound 66] has an IC50 of 0.00794 µM.
For CCc1nc2sc(C)cn2c1C(=O)NCc1ccc(C2CC3(C2)CN(c2ccc(OC(F)(F)F)cc2)C3)cc1 [Compound 67], the IC50 was 0.01 µM.
CCc1nc2n(c1C(=O)NCc1ccc(C3CC4(C3)CN(c3ccc(OC(F)(F)F)cc3)C4)cc1)CCN(C)C2 [Compound 69] gave an IC50 of 0.0316 µM.
CCc1nc2n(c1C(=O)NCc1ccc(N3CC4(C3)CN(c3ccc(OC(F)(F)F)cc3)C4)cc1)CCN(C)C2 [Compound 70] gave an IC50 of 0.316 µM.
With CCc1nc2n(c1C(=O)NCc1ccc(N3CC4(CC(c5ccc(OC(F)(F)F)cc5)C4)C3)cc1)CCN(C)C2 [Compound 71] the IC50 was 0.316 µM.
With CCc1nc2ccc(Cl)cn2c1C(=O)NCc1ccc(N2CC3(CC(Oc4ccc(C(F)(F)F)cc4)C3)C2)cc1 [Compound 72] the IC50 was 0.01 µM.
Compound CCc1nc2ncc(Cl)cn2c1C(=O)NCc1ccc(N2CC3(CC(Oc4ccc(C(F)(F)F)cc4)C3)C2)cc1 [Compound 73] has an IC50 of 0.2 µM.
CCc1nc2n(c1C(=O)NCc1ccc(N3CC4(CC(Oc5ccc(C(F)(F)F)cc5)C4)C3)cc1)CCN(C)C2 [Compound 74] was tested, and the IC50 was 0.0631 µM.
CCc1nc2ccc(Cl)cn2c1C(=O)NCc1ccc(N2CC3(CC(c4cccnc4)C3)C2)cc1 [Compound 77] gave an IC50 of 0.794 µM.
CCc1nc2n(c1C(=O)NCc1ccc(N3CC4(CC(F)C4)C3)cc1)CCN(C)C2 [Compound 78] was tested, and the IC50 was 2.51 µM.
For CCc1c(C(=O)NCc2ccc(N3CC4(C3)CN(c3ccc(OC(F)(F)F)cc3)C4)cc2)c2cc(Cl)cnc2n1C [Compound 79], the IC50 was greater than 12.6 µM.
CCc1c(C(=O)NCc2ccc(N3CC4(C3)CN(c3ccc(OC(F)(F)F)cc3)C4)cc2)c2cc(Cl)ccc2n1C [Compound 80] showed an IC50 greater than 12.6 µM.
CCc1nc2ccc(Cl)cn2c1C(=O)NCc1ccc(N2CCC3(CC2)CC(F)C3)cc1 [Compound 81] was tested, and the IC50 was 0.00501 µM.
CCc1nn2ccc(C)nc2c1C(=O)NCc1ccc(N2CC3(CC(c4ccc(OC(F)(F)F)cc4)C3)C2)cc1 [Compound 97] gave an IC50 greater than 12.6 µM.
Compound CCc1nn2c(C)ccnc2c1C(=O)NCc1ccc(N2CC3(CC(c4ccc(OC(F)(F)F)cc4)C3)C2)cc1 [Compound 98] has an IC50 greater than 12.6 µM.
CCc1nc2cn(C)ccc-2c1C(=O)NCC1CC12CCN(c1ccc(OC(F)(F)F)cc1)CC2 (stereo not drawn) [Compound 99] was tested, and the IC50 was greater than 12.6 µM.
Compound O=C(NCC1CC2(CCN(c3ccc(OC(F)(F)F)cc3)CC2)C1)c1cc2n(c1)CCCC2 [Compound 100] has an IC50 greater than 12.6 µM.
Compound CCc1nc2cnc(Cl)cn2c1C(=O)NCC1CC2(CCN(c3ccc(OC(F)(F)F)cc3)CC2)C1 [Compound 101] has an IC50 of 1.58 µM.
For CCc1nn2ccc(C)nc2c1C(=O)NCc1ccc(C2CC3(C2)CN(c2ccc(OC(F)(F)F)cc2)C3)cc1 [Compound 102], the IC50 was 3.98 µM.
With CCc1nn2c(C)ccnc2c1C(=O)NCc1ccc(C2CC3(C2)CN(c2ccc(OC(F)(F)F)cc2)C3)cc1 [Compound 103] the IC50 was 7.94 µM.
CCc1nc2ccn(C)cc-2c1C(=O)NCc1ccc(N2CC3(CC(c4ccc(OC(F)(F)F)cc4)C3)C2)cc1 [Compound 104] showed an IC50 greater than 12.6 µM.
CCc1nn2c(C)ccnc2c1C(=O)NCC1CC2(CCN(c3ccc(OC(F)(F)F)cc3)CC2)C1 [Compound 105] gave an IC50 greater than 12.6 µM.
Compound CCc1nn2ccc(C)nc2c1C(=O)NCC1CC12CCN(c1ccc(OC(F)(F)F)cc1)CC2 (stereo not drawn) [Compound 106] has an IC50 greater than 12.6 µM.
CCc1nn2ccc(C)nc2c1C(=O)NCC1CC2(CCN(c3ccc(OC(F)(F)F)cc3)CC2)C1 [Compound 107] was tested, and the IC50 was greater than 12.6 µM.
Work on CCc1nn2c(C)ccnc2c1C(=O)NCC1CC12CCN(c1ccc(OC(F)(F)F)cc1)CC2 (stereo not drawn) [Compound 108] yielded an IC50 greater than 12.6 µM.
CCc1nc2ccn(C)cc-2c1C(=O)NCC1CC2(CCN(c3ccc(OC(F)(F)F)cc3)CC2)C1 [Compound 109] gave an IC50 greater than 12.6 µM.
CCc1[nH]c2ncc(Cl)cc2c1C(=O)NCC1CC12CCN(c1ccc(OC(F)(F)F)cc1)CC2 (stereo not drawn) [Compound 110] showed an IC50 greater than 12.6 µM.
In the case of CCc1c(C(=O)NCC2CC3(CCN(c4ccc(OC(F)(F)F)cc4)CC3)C2)c2cnccc2n1C [Compound 111], the IC50 is reported as greater than 12.6 µM.
CCc1nc2ccn(C)cc-2c1C(=O)NCc1ccc(C2CC3(C2)CN(c2ccc(OC(F)(F)F)cc2)C3)cc1 [Compound 112] gave an IC50 of 3.16 µM.
With CCc1[nH]c2ncc(Cl)cc2c1C(=O)NCC1CC2(CCN(c3ccc(OC(F)(F)F)cc3)CC2)C1 [Compound 113] the IC50 was greater than 12.6 µM.
Work on CCc1c(C(=O)NCc2ccc(C3CC4(C3)CN(c3ccc(OC(F)(F)F)cc3)C4)cc2)c2cc(Cl)ccc2n1C [Compound 114] yielded an IC50 of 12.6 µM.
In the case of O=C(NCc1ccc(C2CC3(C2)CN(c2ccc(OC(F)(F)F)cc2)C3)cc1)c1cc2c([nH]1)CCCC2 [Compound 115], the IC50 is reported as 3.16 µM.
CCc1nc2ccc(Cl)cn2c1C(=O)NCc1ccc(C2CC3(C2)CN(C=O)C3)cc1 [Compound 116] gave an IC50 of 0.316 µM.

Same assay, conditions: Test 4, M. tuberculosis strain EH 4.0 (361.269)
With CCc1nc2ccc(Cl)cn2c1C(=O)NCC1CC12CCN(c1ccc(OC(F)(F)F)cc1)CC2 (stereo not drawn) [Compound 1] the pIC50 was 7.0.
CCc1nc2ccc(Cl)cn2c1C(=O)NCC1CC12CCN(c1ccc(OC(F)(F)F)cc1)CC2 (stereo not drawn) [Compound 63] gave a pIC50 of 6.5.

What follows are compounds tested on Mycobacterium tuberculosis strain H37Rv (assay: Test 1: MIC determination, resazurin fluorescence, M. tuberculosis H37Rv). Settings: Mycobacterium tuberculosis, H37RV, read-out: pIC50 (converted).
Type: cell-based
In the case of CCc1nc2ccc(Cl)cn2c1C(=O)NCC1CC12CCN(c1ccc(OC(F)(F)F)cc1)CC2 (stereo not drawn) [Compound 1], the IC50 is reported as 0.00933 µM.

Same assay, conditions: Mycobacterium tuberculosis, H37RV, read-out: pIC50 * (converted)
Compound CCc1nc2ccc(Cl)cn2c1C(=O)NCC1CC12CCN(c1ccc(OC(F)(F)F)cc1)CC2 (stereo not drawn) [Compound 1] has an IC50 of 0.0132 µM.
